Positions of bridges follow the written chain, without caps; N, C: chain ends. Non-standard residues stand in square brackets, D forms with d. Residues, ends and D or L forms follow the SMILES beside them. *: point of attachment. hPhe(3-Cl-4-CF3) = N[C@@H](CCc1ccc(C(F)(F)F)c(Cl)c1)C(=O)O; NMePhe(2-CF3) = CN[C@@H](Cc1ccccc1C(F)(F)F)C(=O)O; NMePhe(3-Cl) = CN[C@@H](Cc1cccc(Cl)c1)C(=O)O; NMePhe(2-Me) = CN[C@@H](Cc1ccccc1C)C(=O)O; NMeAla(cPent) = CN[C@@H](CC1CCCC1)C(=O)O; NMeAla(cPr) = CN[C@@H](CC1CC1)C(=O)O; NMehPhe = CN[C@@H](CCc1ccccc1)C(=O)O; NMeCha = CN[C@@H](CC1CCCCC1)C(=O)O; NMeChg = CN[C@H](C(=O)O)C1CCCCC1; NMeF = CN[C@@H](Cc1ccccc1)C(=O)O; NMeD = CN[C@@H](CC(=O)O)C(=O)O; NMeL = CN[C@@H](CC(C)C)C(=O)O; NMeV = CN[C@H](C(=O)O)C(C)C; d(β3hA) = C[C@@H](N)CC(=O)O; NMeA = CN[C@@H](C)C(=O)O; Piperidide = C1CCN(*)CC1; Ac5c = NC1(C(=O)O)CCCC1; Aze = O=C(O)[C@@H]1CCN1; Sar = CNCC(=O)O
Molecular target: T1, Kras and SOS1 (biotin-tagged human Kras loaded with GDP, His-tagged human SOS1) (Homo sapiens, UniProt P01116, G12D)
T1 construct: made in house; host or cells: E. coli (stated for Kras only)
Assay: Protein-protein interaction inhibition between Kras and SOS1 (KrasGl2D-SOS PPI) using AlphaScreen
Assay type: binding
Details: AlphaScreen; biotin-tagged human Kras loaded with GDP, His-tagged human SOS1; read-out: KRAS G12D-SOS PPI IC50
In short: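 Donor beads (nickel) hold His-SOS1; acceptor beads (streptavidin) hold biotin-Kras bound to GDP. Signal measured at 520-620 nm following 680 nm excitation.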

T1 sequence (P01116 1-188 isoform P01116-2 G12D): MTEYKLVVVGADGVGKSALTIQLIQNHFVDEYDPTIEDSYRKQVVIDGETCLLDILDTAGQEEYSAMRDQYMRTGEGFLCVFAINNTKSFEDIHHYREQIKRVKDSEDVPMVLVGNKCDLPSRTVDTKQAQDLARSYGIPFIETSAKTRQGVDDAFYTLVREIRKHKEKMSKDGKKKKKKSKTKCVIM

Row | SMILES | IC50
1 | CC[C@H](C)[C@@H]1NC(=O)[C@H](CC(C)C)N(C)C(=O)C[C@@H](C(=O)N2CCCCC2)N(C)C(=O)[C@H](C(C)C)N(C)C(=O)C2(CCCC2)NC(=O)[C@@H]2CCCN2C(=O)[C@H](CCc2ccc(C(F)(F)F)c(Cl)c2)NC(=O)CN(C)C(=O)[C@H](CC2CCCCC2)N(C)C(=O)[C@@H]2CCN2C(=O)[C@H](C2CCCCC2)N(C)C1=O [Compound 1600] ([NMeL]I[NMeChg][Aze][NMeCha][Sar][hPhe(3-Cl-4-CF3)]P[Ac5c][NMeV][NMeD]-Piperidide; lactam N-11) | 310 nM
2 | CC[C@H](C)[C@@H]1NC(=O)[C@H](CC(C)C)N(C)C(=O)C[C@@H](C)NC(=O)[C@H](C(C)C)N(C)C(=O)C2(CCCC2)NC(=O)[C@@H]2CCCN2C(=O)[C@H](CCc2ccc(C(F)(F)F)c(Cl)c2)NC(=O)CN(C)C(=O)[C@H](Cc2ccccc2)N(C)C(=O)CN(C)C(=O)CN(C)C1=O [Compound 1606] (cyclo([Ac5c][NMeV][d(β3hA)][NMeL]I[Sar][Sar][NMeF][Sar][hPhe(3-Cl-4-CF3)]P)) | 15 nM
3 | CC[C@H](C)[C@@H]1NC(=O)[C@H](CC(C)C)N(C)C(=O)C[C@@H](C)NC(=O)[C@H](C(C)C)N(C)C(=O)C2(CCCC2)NC(=O)[C@@H]2CCCN2C(=O)[C@H](CCc2ccc(C(F)(F)F)c(Cl)c2)NC(=O)CN(C)C(=O)[C@H](CC2CCCCC2)N(C)C(=O)[C@@H]2CCN2C(=O)[C@H](CC2CC2)N(C)C1=O [Compound 1612] (cyclo([Ac5c][NMeV][d(β3hA)][NMeL]I[NMeAla(cPr)][Aze][NMeCha][Sar][hPhe(3-Cl-4-CF3)]P)) | 390 nM
4 | CC[C@H](C)[C@@H]1NC(=O)[C@H](CC(C)C)N(C)C(=O)C[C@@H](C)NC(=O)[C@H](C(C)C)N(C)C(=O)C2(CCCC2)NC(=O)[C@@H]2CCCN2C(=O)[C@H](CCc2ccc(C(F)(F)F)c(Cl)c2)NC(=O)CN(C)C(=O)[C@H](Cc2ccccc2C(F)(F)F)N(C)C(=O)CN(C)C(=O)CN(C)C1=O [Compound 1613] (cyclo([Ac5c][NMeV][d(β3hA)][NMeL]I[Sar][Sar][NMePhe(2-CF3)][Sar][hPhe(3-Cl-4-CF3)]P)) | 110 nM
5 | CC[C@H](C)[C@@H]1NC(=O)[C@H](CC(C)C)N(C)C(=O)C[C@@H](C)NC(=O)[C@H](C(C)C)N(C)C(=O)C2(CCCC2)NC(=O)[C@@H]2CCCN2C(=O)[C@H](CCc2ccc(C(F)(F)F)c(Cl)c2)NC(=O)CN(C)C(=O)[C@H](Cc2ccccc2C)N(C)C(=O)CN(C)C(=O)CN(C)C1=O [Compound 1614] (cyclo([Ac5c][NMeV][d(β3hA)][NMeL]I[Sar][Sar][NMePhe(2-Me)][Sar][hPhe(3-Cl-4-CF3)]P)) | 51 nM
6 | CC[C@H](C)[C@@H]1NC(=O)[C@H](CC(C)C)N(C)C(=O)C[C@@H](C)NC(=O)[C@H](C(C)C)N(C)C(=O)C2(CCCC2)NC(=O)[C@@H]2CCCN2C(=O)[C@H](CCc2ccc(C(F)(F)F)c(Cl)c2)NC(=O)CN(C)C(=O)[C@H](CC2CCCCC2)N(C)C(=O)[C@@H]2CCN2C(=O)[C@H](CC2CCCC2)N(C)C1=O [Compound 1618] (cyclo([Ac5c][NMeV][d(β3hA)][NMeL]I[NMeAla(cPent)][Aze][NMeCha][Sar][hPhe(3-Cl-4-CF3)]P)) | 290 nM
7 | CC[C@H](C)[C@@H]1NC(=O)[C@H](C)N(C)C(=O)C[C@@H](C(=O)N2CCCCC2)N(C)C(=O)[C@H](C(C)C)N(C)C(=O)C2(CCCC2)NC(=O)[C@@H]2CCCN2C(=O)[C@H](CCc2ccc(C(F)(F)F)c(Cl)c2)NC(=O)CN(C)C(=O)[C@H](CC2CCCCC2)N(C)C(=O)[C@@H]2CCN2C(=O)[C@H](C2CCCCC2)N(C)C1=O [Compound 1622] ([NMeA]I[NMeChg][Aze][NMeCha][Sar][hPhe(3-Cl-4-CF3)]P[Ac5c][NMeV][NMeD]-Piperidide; lactam N-11) | 130 nM
8 | CC[C@H](C)[C@@H]1NC(=O)[C@H](CC(C)C)N(C)C(=O)C[C@@H](C)NC(=O)[C@H](C(C)C)N(C)C(=O)C2(CCCC2)NC(=O)[C@@H]2CCCN2C(=O)[C@H](CCc2ccc(C(F)(F)F)c(Cl)c2)NC(=O)CN(C)C(=O)[C@H](Cc2cccc(Cl)c2)N(C)C(=O)CN(C)C(=O)CN(C)C1=O [Compound 1623] (cyclo([Ac5c][NMeV][d(β3hA)][NMeL]I[Sar][Sar][NMePhe(3-Cl)][Sar][hPhe(3-Cl-4-CF3)]P)) | 54 nM
9 | CC[C@H](C)[C@@H]1NC(=O)[C@H](CC(C)C)N(C)C(=O)C[C@@H](C(=O)N2CCCCC2)N(C)C(=O)[C@H](C(C)C)N(C)C(=O)C2(CCCC2)NC(=O)[C@@H]2CCCN2C(=O)[C@H](CCc2ccc(C(F)(F)F)c(Cl)c2)NC(=O)CN(C)C(=O)[C@H](CC2CCCCC2)N(C)C(=O)[C@@H]2CCN2C(=O)[C@H](CCc2ccccc2)N(C)C1=O [Compound 1624] ([NMeL]I[NMehPhe][Aze][NMeCha][Sar][hPhe(3-Cl-4-CF3)]P[Ac5c][NMeV][NMeD]-Piperidide; lactam N-11) | 92 nM
